The target in assay [1] is NAMPT (Homo sapiens, UniProt P43490). As to the kind of experiment: TR-FRET Binding Assay of NAMPT with PRPP. The conditions noted are these: with 200 μM PRPP and 2.5 mM ATP; 2 nM NAMPT, 2 nM probe, 16 hours equilibration. In outline:
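Human NAMPT (2 nM) with 2 nM probe and 1 nM Tb-anti-His antibody, plus 200 μM PRPP and 2.5 mM ATP, 2% DMSO. TR-FRET read after 16 h equilibration, permitting possible enzymatic modification of test compounds; data processing as for the substrate-free format.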

The test system of assay [2] is PC3 cells. Briefly: NAMPT Cell Proliferation Assay. The conditions noted are these: Homo sapiens, PC-3, 120 h, 5 days incubation, cell viability by Cell Titer Glo. The format is cell-based. In outline: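 Following overnight attachment in RPMI with 10% heat-inactivated FBS, PC3 cells at 500 per well receive compounds spanning 10 μM down to 1×10^−5 μM. Growth is assessed by luminescent viability read after 5 days.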

In assay [3] the target is NAMPT (human, recombinant, C-terminally His-tagged) (Homo sapiens, UniProt P43490). As to the kind of experiment: Time-Resolved Fluorescence Resonance Energy Transfer (TR-FRET) Binding Assay of NAMPT. The note with it: without substrates; 6.8 nM NAMPT, 200 nM probe, 3 hours equilibration. The gist of the method: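 A TR-FRET probe-displacement assay used 6.8 nM His-tagged recombinant human NAMPT, 200 nM Oregon Green 488-labelled nicotinamide-competitive probe and 1 nM Tb-anti-His antibody. Buffer was HEPES pH 7.5 with NaCl, MgCl2, DTT and glycerol, plus 2% DMSO, equilibrated 3 h at room temperature. Em520/Em495 ratios, normalized to controls, gave IC50 by four-parameter logistic fit.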
Chain of NAMPT (human, recombinant, C-terminally His-tagged) (P43490 whole entry): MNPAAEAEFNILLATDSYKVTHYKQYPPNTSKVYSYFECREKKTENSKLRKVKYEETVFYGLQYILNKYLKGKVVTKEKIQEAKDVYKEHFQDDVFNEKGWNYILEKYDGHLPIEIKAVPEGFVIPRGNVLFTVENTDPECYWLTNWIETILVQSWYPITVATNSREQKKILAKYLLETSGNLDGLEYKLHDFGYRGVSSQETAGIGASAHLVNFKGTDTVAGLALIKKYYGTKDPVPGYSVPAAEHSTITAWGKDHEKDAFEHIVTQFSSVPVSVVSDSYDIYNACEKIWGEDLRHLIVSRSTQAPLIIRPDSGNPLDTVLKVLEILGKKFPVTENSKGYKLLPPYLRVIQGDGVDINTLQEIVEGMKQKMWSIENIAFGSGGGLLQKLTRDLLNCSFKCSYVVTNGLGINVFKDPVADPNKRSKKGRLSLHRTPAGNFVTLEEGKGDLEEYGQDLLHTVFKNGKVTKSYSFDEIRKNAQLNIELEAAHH

Chain of NAMPT (P43490 whole entry): as above

`CC(C)(O)Cn1cc(-c2ccc(C(=O)NCc3ccc4ncnn4c3)s2)cn1` [Example 621, 5-[1-(2-hydroxy-2-methylpropyl)-1H-pyrazol-4-yl]-N-([1,2,4]triazolo[1,5-a]pyridin-6-ylmethyl)thiophene-2-carboxamide]: the IC50 stood at 5.42 nM in assay [1], 25.3 nM in assay [2] and 114 nM in assay [3].

As for `CC1(Cn2cc(-c3ccc(C(=O)NCc4ccc5ncnn5c4)s3)cn2)CCOCC1` [Example 622, 5-{1-[(4-methyltetrahydro-2H-pyran-4-yl)methyl]-1H-pyrazol-4-yl}-N-([1,2,4]triazolo[1,5-a]pyridin-6-ylmethyl)thiophene-2-carboxamide], the half-inhibitory concentration (IC50) in assay [1] is 2.36 nM; in assay [2] it was 7.06 nM; in assay [3], 29.4 nM.

In the case of `CS(=O)(=O)N1CC(c2ccc(C(=O)NCc3ccn4ccnc4c3)cc2)C1` [Example 623, N-(imidazo[1,2-a]pyridin-7-ylmethyl)-4-[1-(methylsulfonyl)azetidin-3-yl]benzamide], the figures for the half-maximal inhibitory concentration (IC50) in assay [1], in assay [2] and in assay [3] were 1.6 nM, 446 nM and 1010 nM, respectively.

Turning to `CS(=O)(=O)N1CCC(c2ccc(C(=O)NCc3ccn4ccnc4c3)cc2)C1` (stereo not drawn) [Example 624, N-(imidazo[1,2-a]pyridin-7-ylmethyl)-4-[1-(methylsulfonyl)pyrrolidin-3-yl]benzamide], the values for the IC50 in assay [1], in assay [2] and in assay [3] were 0.627 nM, 329 nM and 261 nM, respectively.

As for `CCS(=O)(=O)N1CCC(c2ccc(C(=O)NCc3ccn4ccnc4c3)cc2)C1` (stereo not drawn) [Example 625, 4-[1-(ethylsulfonyl)pyrrolidin-3-yl]-N-(imidazo[1,2-a]pyridin-7-ylmethyl)benzamide], the concentration for half-maximal inhibition (IC50) in assay [1] worked out at 0.76 nM; in assay [2], 226 nM; in assay [3], 795 nM.

Turning to `O=C(NCc1ccn2ccnc2c1)c1ccc(C2CCN(S(=O)(=O)C3CC3)C2)cc1` (stereo not drawn) [Example 626, 4-[1-(cyclopropylsulfonyl)pyrrolidin-3-yl]-N-(imidazo[1,2-a]pyridin-7-ylmethyl)benzamide], the values for the IC50 in assay [1], in assay [2] and in assay [3] were 0.793 nM, 80.7 nM and 645 nM, respectively.

As to `O=C(NCc1ccn2ccnc2c1)c1ccc(C2CCN(S(=O)(=O)c3ccccc3)C2)cc1` (stereo not drawn) [Example 627, N-(imidazo[1,2-a]pyridin-7-ylmethyl)-4-[1-(phenylsulfonyl)pyrrolidin-3-yl]benzamide], the IC50 was determined as 0.71 nM in assay [1], 17.5 nM in assay [2] and 211 nM in assay [3].

Regarding `CC1CC1C(=O)N1CC(c2ccc(C(=O)NCc3ccn4ccnc4c3)cc2)C1` (stereo not drawn) [Example 628, N-(imidazo[1,2-a]pyridin-7-ylmethyl)-4-{1-[(2-methylcyclopropyl)carbonyl]azetidin-3-yl}benzamide], the IC50 in assay [1] was 0.978 nM; in assay [2], 43.6 nM; in assay [3], 706 nM.

For `O=C(NCc1ccn2ccnc2c1)c1ccc(C2CN(C(=O)CC3CCCC3)C2)cc1` [Example 629, 4-[1-(cyclopentylacetyl)azetidin-3-yl]-N-(imidazo[1,2-a]pyridin-7-ylmethyl)benzamide], the IC50 in assay [1] is 0.643 nM; in assay [2], 65.2 nM; in assay [3], 230 nM.

For `CCC(C)CC(=O)N1CC(c2ccc(C(=O)NCc3ccn4ccnc4c3)cc2)C1` (stereo not drawn) [Example 630, N-(imidazo[1,2-a]pyridin-7-ylmethyl)-4-[1-(3-methylpentanoyl)azetidin-3-yl]benzamide], the half-maximal inhibitory concentration (IC50) in assay [1] turned out to be 0.563 nM; in assay [2], 40.4 nM; in assay [3] it was 266 nM.

As for `O=C(NCc1ccn2ccnc2c1)c1ccc(C2CN(C(=O)C3CCCC3)C2)cc1` [Example 631, 4-[1-(cyclopentylcarbonyl)azetidin-3-yl]-N-(imidazo[1,2-a]pyridin-7-ylmethyl)benzamide], the half-inhibitory concentration (IC50) in assay [1] is 1.26 nM; in assay [2] it was 77.2 nM; in assay [3], 616 nM.

The values above are taken from patent US9187472B2 (AbbVie Inc., priority 2012, dated 2015).
